Consider 38 molecules from US9732075B2, “Benzimidazole-proline derivatives” (IDORSIA PHARMACEUTICALS LTD, priority 2012, dated 2017).

In one test the target is human orexin-1 receptor (Homo sapiens (Human), UniProt O43613). The experiment in a line: In vitro assay: intracellular calcium measurements (FLIPR), antagonistic activity. The format is cell-based. As to conditions: CHO cells expressing human orexin-1 receptor, orexin-A agonist, geometric mean, read-out: IC50 Ox1. An outline of the steps:
(§1)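 In this FLIPR calcium assay, antagonists were given 120 min on CHO cells with human OX1 or OX2 receptor before orexin-A (3 nM final) was added. Peak fluorescence was measured at 1 s intervals against the uninhibited agonist peak, and IC50s were averaged geometrically.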
Background: Calcium assays in cells follow changes in intracellular calcium, usually with a dye or a luminescent sensor.

A further test addresses human orexin-2 receptor (Homo sapiens (Human), UniProt O43614). The description is as above. The test is classed as cell-based. As to conditions: CHO cells expressing human orexin-2 receptor, orexin-A agonist, geometric mean, read-out: IC50 Ox2. The gist of the method: as §1

human orexin-2 receptor, sequence (O43614 whole entry): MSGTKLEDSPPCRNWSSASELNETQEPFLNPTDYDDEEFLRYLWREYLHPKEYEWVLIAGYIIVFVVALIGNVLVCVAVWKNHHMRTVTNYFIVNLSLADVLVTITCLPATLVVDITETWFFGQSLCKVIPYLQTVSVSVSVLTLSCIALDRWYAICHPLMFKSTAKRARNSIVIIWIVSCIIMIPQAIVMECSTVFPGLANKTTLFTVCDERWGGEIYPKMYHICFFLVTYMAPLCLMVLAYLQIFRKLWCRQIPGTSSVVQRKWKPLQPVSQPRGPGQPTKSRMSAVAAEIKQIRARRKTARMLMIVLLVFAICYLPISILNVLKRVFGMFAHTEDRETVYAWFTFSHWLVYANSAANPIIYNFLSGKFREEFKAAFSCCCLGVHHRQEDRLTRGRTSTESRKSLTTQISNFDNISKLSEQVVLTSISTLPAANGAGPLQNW
human orexin-1 receptor, sequence (O43613 whole entry): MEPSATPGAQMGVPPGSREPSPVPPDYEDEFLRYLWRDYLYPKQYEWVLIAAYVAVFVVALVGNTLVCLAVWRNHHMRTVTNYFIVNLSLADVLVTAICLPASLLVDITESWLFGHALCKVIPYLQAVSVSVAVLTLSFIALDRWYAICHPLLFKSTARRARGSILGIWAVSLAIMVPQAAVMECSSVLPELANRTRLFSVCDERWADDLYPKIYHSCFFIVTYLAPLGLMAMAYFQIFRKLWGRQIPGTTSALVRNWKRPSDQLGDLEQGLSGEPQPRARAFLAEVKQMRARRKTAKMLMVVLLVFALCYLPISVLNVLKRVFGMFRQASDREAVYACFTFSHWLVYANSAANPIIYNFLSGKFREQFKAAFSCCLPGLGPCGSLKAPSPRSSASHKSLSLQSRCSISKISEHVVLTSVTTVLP

For orientation: IC50 means the concentration that inhibits the measured activity by half. As for `Cc1nc(C(=O)N2CCCC2c2nc3c(C(F)(F)F)cc(C(F)(F)F)cc3[nH]2)c(-c2ccccc2)s1` (stereo not shown) [Ex. 1.118], the half-inhibitory concentration (IC50) was determined as 191 nM on human orexin-1 receptor and 364 nM at human orexin-2 receptor.
The corresponding values for `Cc1c(Cl)ccc2[nH]c([C@]3(C)CCCN3C(=O)c3nc(-c4ccccc4Cl)sc3-c3ccc(F)cc3)nc12` [Ex. 5.256] are 13 nM and 402 nM.
For `CO[C@H]1CN(C(=O)c2cc(C)ccc2-n2cccn2)C(C)(c2nc3c(C)c(Cl)ccc3[nH]2)C1` (stereo partly shown) [Ex. 3.53], the IC50 at human orexin-1 receptor is 10 nM; on human orexin-2 receptor, 20 nM.
The matching figures for `Cc1nc(C(=O)N2CCCC2c2nc3cc(C(F)(F)F)c(Cl)cc3[nH]2)c(-c2ccccc2)s1` (stereo not shown) [Ex. 1.137]: 4 nM and 33 nM.
For `COc1ccc(-n2nccn2)c(C(=O)N2CC[C@H](C)[C@H]2c2nc3cc(C)c(C)cc3[nH]2)c1` [Ex. 4.84], the concentration for half-maximal inhibition (IC50) at human orexin-1 receptor stood at 8 nM; at human orexin-2 receptor, 58 nM.
The matching figures for `CSc1ccc2nc([C@@H]3CCCN3C(=O)c3nc(C)sc3-c3cc(F)cc(F)c3)[nH]c2c1` [Ex. 1.44]: 404 nM and 120 nM.
The corresponding values for `Cc1ccc(-c2ncccn2)c(C(=O)N2CC[C@H](C)[C@H]2c2nc3c(C)c(Cl)ccc3[nH]2)c1` [Ex. 4.178] are 7 nM and 350 nM.
Turning to `CSc1ccc2[nH]c([C@@H]3CCCN3C(=O)c3c(-n4nccn4)ccc(C)c3F)nc2c1` [Ex. 1.179], the 50% inhibitory concentration (IC50) at human orexin-1 receptor amounted to 486 nM; on human orexin-2 receptor, 28 nM.
Turning to `CO[C@@H]1C[C@@H](c2nc3ccc(Cl)c(C)c3[nH]2)N(C(=O)c2ccccc2-c2ccc(F)c(C)c2)C1` [Ex. 3.40], the results for the IC50 at human orexin-1 receptor and on human orexin-2 receptor were 8 nM and 7 nM, respectively.
The matching figures for `Cc1ccc(-c2ccc(F)cc2)c(C(=O)N2CCC[C@@]2(C)c2nc3cc(C(F)(F)F)ccc3[nH]2)c1` [Ex. 5.197]: 18 nM and 166 nM.
The corresponding values for `CSc1ccc2nc([C@@H]3CCCN3C(=O)c3cc(C)ccc3-n3nccn3)[nH]c2c1` [Ex. 1.17] are 97 nM and 8 nM.
The corresponding values for `C=C1CC(c2nc3cc(OC)ccc3[nH]2)N(C(=O)c2cc(C)sc2-c2ccc(C)c(C)c2)C1` (racemic) [Ex. 6.71] are 24 nM and 2 nM.
Take `COc1cc2nc([C@@H]3[C@@H](C)CCN3C(=O)c3c(C)cccc3-n3nccn3)[nH]c2cc1OC` [Ex. 4.48]: the concentration for half-maximal inhibition (IC50) on human orexin-1 receptor came to 391 nM; on human orexin-2 receptor it was 1320 nM.
The matching figures for `Cc1ccc(-c2ccc(C#N)cc2)c(C(=O)N2CCC[C@@]2(C)c2nc3cc(C(F)(F)F)c(Cl)cc3[nH]2)c1` [Ex. 5.160]: 38 nM and 113 nM.
The corresponding values for `C=C1C[C@@H](c2nc3cc(Cl)c(C(F)(F)F)cc3[nH]2)N(C(=O)c2cc(C)ccc2-n2cccn2)C1` [Ex. 6.187] are 24 nM and 15 nM.
Take `Cc1cc(-c2nc(C(=O)N3CCC[C@@]3(C)c3nc4c(C)c(Cl)ccc4[nH]3)c(-c3ccc(F)cc3)s2)ccc1F` [Ex. 5.252]: the half-inhibitory concentration (IC50) was found to be 20 nM at human orexin-1 receptor and 1640 nM at human orexin-2 receptor.
The matching figures for `Cc1cc2[nH]c([C@@H]3[C@@H](C)CCN3C(=O)c3c(-c4ncccn4)ccc(C)c3F)nc2cc1Cl` [Ex. 4.132]: 87 nM and 1320 nM.
On to `Cc1ccc(C(=O)N2CC[C@H](C)[C@H]2c2nc3c(C)c(Cl)ccc3[nH]2)c(-c2ccccn2)c1` [Ex. 4.167], for which the half-inhibitory concentration (IC50) at human orexin-1 receptor is 13 nM; at human orexin-2 receptor, 144 nM.
The corresponding values for `CSc1ccc2nc([C@@H]3CCCN3C(=O)c3ccccc3-c3ccc(C)c(C)c3)[nH]c2c1` [Ex. 1.46] are 128 nM and 13 nM.
The corresponding values for `C=C1C[C@@H](c2nc3cc(OC)ccc3[nH]2)N(C(=O)c2nccnc2-c2cccc(C)c2)C1` [Ex. 6.6] are 477 nM and 52 nM.
Turning to `Cc1ccc(-c2nc(C)sc2C(=O)N2CC[C@H](C)[C@H]2c2nc3c(C)c(Cl)ccc3[nH]2)cc1` [Ex. 4.65], the values for the concentration for half-maximal inhibition (IC50) at human orexin-1 receptor and at human orexin-2 receptor were 8 nM and 207 nM, respectively.
In the case of `C=C1C[C@@H](c2nc3cc(Cl)c(C(F)(F)F)cc3[nH]2)N(C(=O)c2cc(F)ccc2-n2nccn2)C1` [Ex. 6.176], the values for the IC50 at human orexin-1 receptor and on human orexin-2 receptor were 58 nM and 18 nM, respectively.
The corresponding values for `C=C1CN(C(=O)c2cc(OC)ccc2-n2nccn2)C(C)(c2nc3cc(OC)ccc3[nH]2)C1` (stereo not shown) [Ex. 6.158] are 57 nM and 35 nM.
For `COc1cc2nc([C@]3(C)CCCN3C(=O)c3cc(C(F)(F)F)ccc3-n3nccn3)[nH]c2cc1OC` [Ex. 5.71], the IC50 was determined as 56 nM on human orexin-1 receptor and 22 nM on human orexin-2 receptor.
The matching figures for `COc1ccc2[nH]c([C@@H]3CCCN3C(=O)c3c(-n4nccn4)ccc(C)c3F)nc2c1` [Ex. 1.172]: 1160 nM and 19 nM.
The corresponding values for `CSc1ccc2nc([C@@H]3CCCN3C(=O)c3nc(C4CC4)sc3-c3ccccc3)[nH]c2c1` [Ex. 1.35] are 117 nM and 99 nM.
The corresponding values for `Cc1ccc(-n2nccn2)c(C(=O)N2CCC[C@@]2(C)c2nc3cc(C)c(C)cc3[nH]2)n1` [Ex. 5.62] are 35 nM and 130 nM.
Consider `CO[C@@H]1C[C@@H](c2nc3ccc(Cl)c(C)c3[nH]2)N(C(=O)c2cc(C)c(C)cc2-n2nccn2)C1` [Ex. 3.16], for which the 50% inhibitory concentration (IC50) turned out to be 24 nM on human orexin-1 receptor and 2 nM at human orexin-2 receptor.
As to `COc1ccc(-c2sc(C)nc2C(=O)N2CC[C@H](C)[C@H]2c2nc3c(C)c(Cl)ccc3[nH]2)cn1` [Ex. 4.69], the values for the half-maximal inhibitory concentration (IC50) on human orexin-1 receptor and on human orexin-2 receptor were 2 nM and 191 nM, respectively.
The corresponding values for `C[C@@]1(c2nc3c(F)c(F)ccc3[nH]2)CCCN1C(=O)c1cc(F)ccc1-n1nccn1` [Ex. 5.204] are 360 nM and 900 nM.
The matching figures for `Cc1ccc(-n2nccn2)c(C(=O)N2CCC[C@H]2c2nc3cccc(Cl)c3[nH]2)c1` [Ex. 1.6]: 202 nM and 46 nM.
As to `Cc1nc(C(=O)N2CC[C@H](C)[C@H]2c2nc3cc(F)ccc3[nH]2)c(-c2cccc(Cl)c2)s1` [Ex. 4.20], the values for the IC50 on human orexin-1 receptor and on human orexin-2 receptor were 28 nM and 2450 nM, respectively.
The matching figures for `Cc1cc(C(=O)N2CCC[C@@]2(C)c2nc3c(C)c(Cl)ccc3[nH]2)c(-n2nccn2)cn1` [Ex. 5.263]: 56 nM and 304 nM.
The corresponding values for `Cc1nc(C(=O)N2CCC[C@@]2(C)c2nc3cc(OC(F)(F)F)ccc3[nH]2)c(-c2ccc(C)c(C)c2)s1` [Ex. 5.245] are 14 nM and 80 nM.
The matching figures for `Cc1ccc(-c2ncccn2)c(C(=O)N2CC[C@H](C)[C@H]2c2nc3c(C)c(Cl)ccc3[nH]2)c1F` [Ex. 4.176]: 15 nM and 1070 nM.
For `Cc1nc(C(=O)N2CCCC2c2nc3c4c(ccc3[nH]2)OCCO4)c(-c2cccc(Cl)c2)s1` (racemic) [Ex. 1.117], the IC50 on human orexin-1 receptor came to 136 nM; at human orexin-2 receptor, 56 nM.
The matching figures for `C=C1C[C@@H](c2nc3cc(OC)ccc3[nH]2)N(C(=O)c2nc(C3CC3)sc2-c2ccccc2)C1` [Ex. 6.10]: 206 nM and 81 nM.
Take `Cc1nc(C(=O)N2CC(F)(F)C[C@H]2c2nc3c(C)c(Cl)ccc3[nH]2)c(-c2ccccc2)s1` [Ex. 2.8]: the values for the half-inhibitory concentration (IC50) at human orexin-1 receptor and at human orexin-2 receptor were 70 nM and 51 nM, respectively.
